Molecules are shown by their SMILES.

Take `Cc1cc(N2CCS(=O)(=O)CC2)ccc1NC(=O)Cc1ccc(C)c(Oc2cc(Cl)cc(C#N)c2)c1` [Compound I-161, 2-[3-(3-Chloro-5-cyano-phenoxy)-4-methyl-phenyl]-N-[4-(1,1-dioxo-1λ^6-thiomorpholin-4-yl)-2-methyl-phenyl]-acetamide]: the melting point (usually the temperature, or range, at which the solid turns liquid) was in the range of 64.8 to 65.4 °C. As for `CCc1ccc(CC(=O)Nc2ccc(S(N)(=O)=O)cc2)cc1Oc1cc(Cl)cc(Br)c1` [Compound I-22, 2-[3-(3-Bromo-5-chloro-phenoxy)-4-ethyl-phenyl]-N-(4-sulfamoyl-phenyl)-acetamide], the figure is 216.1 to 221.3 °C. The value for `CSCCNS(=O)(=O)c1ccc(NC(=O)Cc2ccc(C)c(Oc3cc(Cl)cc(C#N)c3)c2)c(C)c1` [Compound I-130, 2-[3-(3-Chloro-5-cyano-phenoxy)-4-methyl-phenyl]-N-[2-methyl-4-(2-methylsulfanyl-ethylsulfamoyl)-phenyl]-acetamide] was 155.6 to 156.6 °C; that for `COc1ccc(CC(=O)Nc2ccc(S(N)(=O)=O)cc2Cl)cc1Oc1cc(C#N)cc(C(F)F)c1` [Compound I-94, N-(2-Chloro-4-sulfamoyl-phenyl)-2-[3-(3-cyano-5-difluoromethyl-phenoxy)-4-methoxy-phenyl]-acetamide] was 185 to 187.9 °C. As for `CCOC(=O)C(=O)Nc1ccc(NC(=O)Cc2ccc(C)c(Oc3cc(Cl)cc(C#N)c3)c2)c(C)c1` [Compound I-178, N-(4-{2-[3-(3-Chloro-5-cyano-phenoxy)-4-methyl-phenyl]-acetylamino}-3-methyl-phenyl)-oxalamic acid ethyl ester], the figure is 182.5 to 183.9 °C.

`CCc1ccc(CC(=O)Nc2ccc(S(N)(=O)=O)cc2C)cc1Oc1cc(C#N)cc(C#N)c1Cl` [Compound I-53, 2-[3-(2-Chloro-3,5-dicyano-phenoxy)-4-ethyl-phenyl]-N-(2-methyl-4-sulfamoyl-phenyl)-acetamide]: the melting point lay in the range of 199.4 to 205.3 °C. The value for `NS(=O)(=O)c1ccc(NC(=O)Cc2ccc(Cl)c(Oc3cc(Cl)ccc3Br)c2)cc1` [Compound I-4, 2-[3-(2-Bromo-5-chloro-phenoxy)-4-chloro-phenyl]-N-(4-sulfamoyl-phenyl)-acetamide] was 260.1 to 261.9 °C; that for `COc1ccc(CC(=O)Nc2ccc(S(N)(=O)=O)cc2)cc1Oc1cc(C#N)ccc1Cl` [Compound I-65, 2-[3-(2-Chloro-5-cyano-phenoxy)-4-methoxy-phenyl]-N-(4-sulfamoyl-phenyl)-acetamide] was 252.3 to 254.3 °C. As for `CCc1ccc(CC(=O)Nc2ccccc2Cl)cc1Oc1cc(Br)cc(Br)c1Cl` [Compound I-38, N-(2-Chloro-phenyl)-2-[3-(3,5-dibromo-2-chloro-phenoxy)-4-ethyl-phenyl]-acetamide], the figure is 155.5 to 155.8 °C. The compound `CCc1ccc(CC(=O)Nc2ccccc2Cl)cc1Oc1cc(Cl)cc(Br)c1Cl` [Compound I-37, 2-[3-(3-Bromo-2,5-dichloro-phenoxy)-4-ethyl-phenyl]-N-(2-chloro-phenyl)-acetamide] came in with a melting point of 146.5 to 147.6 °C. Consider `COc1ccc(CC(=O)Nc2ccc(S(N)(=O)=O)cc2C)c(F)c1Oc1cc(Cl)cc(C#N)c1` [Compound I-191, 2-[3-(3-Chloro-5-cyano-phenoxy)-2-fluoro-4-methoxy-phenyl]-N-(2-methyl-4-sulfamoyl-phenyl)-acetamide], for which the melting point was 239.9 to 240.8 °C. The value for `Cc1ccc(CC(=O)Nc2ccc(S(N)(=O)=O)cc2)cc1Oc1cc(F)cc(C#N)c1` [Compound I-11, 2-[3-(3-Cyano-5-fluoro-phenoxy)-4-methyl-phenyl]-N-(4-sulfamoyl-phenyl)-acetamide] was 165.8 to 168.1 °C; that for `Cc1cc(S(N)(=O)=O)ccc1NC(=O)Cc1ccc(Cl)c(Oc2cc(C#N)cc(C(F)(F)F)c2)c1F` [Compound I-120, 2-[4-Chloro-3-(3-cyano-5-trifluoromethyl-phenoxy)-2-fluoro-phenyl]-N-(2-methyl-4-sulfamoyl-phenyl)-acetamide] was 212 to 216.1 °C.

Take `N#Cc1cc(Oc2c(Cl)ccc(CC(=O)Nc3ccccc3Cl)c2F)cc(C(F)F)c1` [Compound I-14, 2-[4-Chloro-3-(3-cyano-5-difluoromethyl-phenoxy)-2-fluoro-phenyl]-N-(2-chloro-phenyl)-acetamide]: the melting point was in the range of 169.5 to 171 °C.

`CCc1ccc(CC(=O)Nc2ccccc2Cl)cc1Oc1cc(Cl)cc(Br)c1` [Compound I-24, 2-[3-(3-Bromo-5-chloro-phenoxy)-4-ethyl-phenyl]-N-(2-chloro-phenyl)-acetamide]: the melting point lay within 119.9 to 122.2 °C. `Cc1cc(C#N)cc(Oc2c(Cl)ccc(CC(=O)Nc3ccc(S(N)(=O)=O)cc3C)c2F)n1` [Compound I-124, 2-[4-Chloro-3-(4-cyano-6-methyl-pyridin-2-yloxy)-2-fluoro-phenyl]-N-(2-methyl-4-sulfamoyl-phenyl)-acetamide]: the melting point lay within 230.1 to 230.7 °C. As for `Cc1cc(CC(=O)Nc2ccc(S(N)(=O)=O)cc2)cc(Oc2cc(Cl)cc(C#N)c2)c1C` [Compound I-182, 2-[3-(3-Chloro-5-cyano-phenoxy)-4,5-dimethyl-phenyl]-N-(4-sulfamoyl-phenyl)-acetamide], the figure is 229.7 to 231.3 °C; as for `Cc1cc(S(N)(=O)=O)ccc1NC(=O)Cc1ccc(C)c(Oc2cc(C#N)cc(C#N)c2)c1` [Compound I-43, 2-[3-(3,5-Dicyano-phenoxy)-4-methyl-phenyl]-N-(2-methyl-4-sulfamoyl-phenyl)-acetamide], 228.6 to 230.9 °C. As for `CCc1ccc(CC(=O)Nc2ccc(S(N)(=O)=O)cc2)cc1Oc1cc(Cl)ccc1C#N` [Compound I-17, 2-[3-(5-Chloro-2-cyano-phenoxy)-4-ethyl-phenyl]-N-(4-sulfamoyl-phenyl)-acetamide], the figure is 198.1 to 202.6 °C; as for `COc1ccc(CC(=O)Nc2ccc(S(N)(=O)=O)cc2C)cc1Oc1cc(Cl)cc(C#N)c1` [Compound I-73, 2-[3-(3-Chloro-5-cyano-phenoxy)-4-methoxy-phenyl]-N-(2-methyl-4-sulfamoyl-phenyl)-acetamide], 222.3 to 224.3 °C. The value for `Cc1cc(S(N)(=O)=O)ccc1NC(=O)Cc1ccc(Cl)c(Oc2cc(C#N)cc(C#CCO)c2)c1F` [Compound I-186, 2-{4-Chloro-3-[3-cyano-5-(3-hydroxy-prop-1-ynyl)-phenoxy]-2-fluoro-phenyl}-N-(2-methyl-4-sulfamoyl-phenyl)-acetamide] was 170.1 to 173.2 °C. For `COCC(=O)N(C)S(=O)(=O)c1ccc(NC(=O)Cc2ccc(Cl)c(Oc3cc(Cl)cc(C#N)c3)c2F)c(Cl)c1` [Compound I-171, 2-[4-Chloro-3-(3-chloro-5-cyano-phenoxy)-2-fluoro-phenyl]-N-{2-chloro-4-[(2-methoxy-acetyl)-methyl-sulfamoyl]-phenyl}-acetamide], the melting point was in the range of 183.2 to 185.5 °C.

For the compound `COc1ccc(CC(=O)Nc2ccc(S(N)(=O)=O)cc2Cl)cc1Oc1cc(Cl)cc(C#N)c1` [Compound I-64, 2-[3-(3-Chloro-5-cyano-phenoxy)-4-methoxy-phenyl]-N-(2-chloro-4-sulfamoyl-phenyl)-acetamide], the melting point was 186.3 to 189.7 °C.

The compound `Cc1cc(S(=O)(=O)CCC(=O)O)ccc1NC(=O)Cc1ccc(C)c(Oc2cc(Cl)cc(C#N)c2)c1` [Compound I-125, 3-(4-{2-[3-(3-Chloro-5-cyano-phenoxy)-4-methyl-phenyl]-acetylamino}-3-methyl-benzenesulfonyl)-propionic acid] showed a melting point of 74.3 to 76.5 °C. As for `Cc1cc(S(N)(=O)=O)ccc1NC(=O)Cc1ccc(C)c(Oc2cc(C#N)cc(C(F)F)c2)c1F` [Compound I-85, 2-[3-(3-Cyano-5-difluoromethyl-phenoxy)-2-fluoro-4-methyl-phenyl]-N-(2-methyl-4-sulfamoyl-phenyl)-acetamide], the figure is 218 to 220.4 °C. In turn, `COc1ccc(CC(=O)Nc2ccc(S(N)(=O)=O)cc2C)cc1Oc1cc(C#N)ccc1Cl` [Compound I-66, 2-[3-(2-Chloro-5-cyano-phenoxy)-4-methoxy-phenyl]-N-(2-methyl-4-sulfamoyl-phenyl)-acetamide] came in with a melting point of 232.9 to 236.9 °C. As for `COc1ccc(CC(=O)Nc2ccc(S(N)(=O)=O)cc2)cc1Oc1cc(Cl)cc(C#N)c1` [Compound I-57, 2-[3-(3-Chloro-5-cyano-phenoxy)-4-methoxy-phenyl]-N-(4-sulfamoyl-phenyl)-acetamide], the figure is 218.3 to 221.4 °C; as for `COc1ccc(CC(=O)Nc2ccc(S(N)(=O)=O)cc2)cc1Oc1cc(C#N)cc(C(F)F)c1` [Compound I-92, 2-[3-(3-Cyano-5-difluoromethyl-phenoxy)-4-methoxy-phenyl]-N-(4-sulfamoyl-phenyl)-acetamide], 213.9 to 214.2 °C; as for `Cc1cc(S(=O)(=O)NCC(C)O)ccc1NC(=O)Cc1ccc(C)c(Oc2cc(Cl)cc(C#N)c2)c1` (centres unmarked) [Compound I-129, 2-[3-(3-Chloro-5-cyano-phenoxy)-4-methyl-phenyl]-N-[4-(2-hydroxy-propylsulfamoyl)-2-methyl-phenyl]-acetamide], 172.2 to 173.4 °C. The compound `N#Cc1cc(C#N)cc(Oc2c(Cl)ccc(CC(=O)Nc3ccc(S(N)(=O)=O)cc3)c2F)c1` [Compound I-9, 2-[4-Chloro-3-(3,5-dicyano-phenoxy)-2-fluoro-phenyl]-N-(4-sulfamoyl-phenyl)-acetamide] displayed a melting point of 135.7 to 138.1 °C. The value for `CSCCCNS(=O)(=O)c1ccc(NC(=O)Cc2ccc(C)c(Oc3cc(Cl)cc(C#N)c3)c2)c(C)c1` [Compound I-131, 2-[3-(3-Chloro-5-cyano-phenoxy)-4-methyl-phenyl]-N-[2-methyl-4-(3-methylsulfanyl-propylsulfamoyl)-phenyl]-acetamide] was 159.9 to 162.8 °C. As for `Cc1ccc(CC(=O)Nc2ccccc2Cl)cc1Oc1cc(F)cc(C#N)c1` [Compound I-12, N-(2-Chloro-phenyl)-2-[3-(3-cyano-5-fluoro-phenoxy)-4-methyl-phenyl]-acetamide], the figure is 131.1 to 132.2 °C.

The record behind these values is patent US7166738B2, “Non-nucleoside reverse transcriptase inhibitors” (Roche Palo Alto LLC, priority 2004, dated 2007).
